Measured values reported in article PMC9516243, “Design of stapled peptide-based PROTACs for MDM2/MDMX atypical degradation and tumor suppression” (Theranostics, 2022).
pKi: −log10 of the molar value. Several values for one entry are separate records, joined by “and”; a condition that tells them apart may be missing. Equal values may be shown once.

How the values were obtained:
[1] = test system: HCT116 p53^-/- cells; assay: Cell viability assay (CCK-8); assay type: cell-based, human; conditions: CCK-8, 72 h incubation, absorbance 450 nm; read-out: IC50 (μM) HCT116 p53^-/-
Experimental: (§1) The human colon carcinoma cell line HCT116 p53^+/+ was obtained from the Cell Bank of the Chinese Academy of Sciences (Shanghai, China). HCT116 p53^-/- cells were generously provided by Prof. Vogelstein of Johns Hopkins University. Both cell lines were cultured in McCoy's 5A medium (Gibco, USA) containing 10% FBS, 100 units/ml penicillin, and 100 μg/ml streptomycin at 37 °C in a humidified incubator containing 5% CO2. Cell viability was measured using a Cell Counting Kit-8 (CCK-8) (Dojindo, Kumamoto, Japan) according to the manufacturer's instructions. In brief, the cells (5 × 10^3 cells/well in […] medium) were cultured for 24 h in 96-well microplates in a humidified 5% CO2 incubator at 37 °C and then treated with varying concentrations of compounds or 0.1% DMSO vehicle control.

[2] = test system: HCT116 p53^+/+ cells; assay: Cell viability assay (CCK-8); assay type: cell-based, human; conditions: CCK-8, 72 h incubation, absorbance 450 nm; read-out: IC50 (μM) HCT116 p53^+/+
Experimental: as §1

[3] = α-Helicity by CD spectroscopy; assay type: physicochemical; conditions: PB pH 7.2, 10-50 µM peptide, 20°C, calculated from [θ]222
Experimental: Peptides were dissolved in PB (pH = 7.2) to concentrations ranging from 10 to 50 µM. CD spectra were obtained on a Jasco J-715 spectropolarimeter at 20°C. The spectra were collected using a 0.1 cm path length quartz cuvette with the following measurement parameters: wavelength, 185-255 nm; step resolution, 0.1 nm; speed, 20 nm/min; accumulations, 6; bandwidth, 1 nm. The helical content of each peptide was calculated as reported previously.

[4] = Pharmacokinetic study; assay type: in vivo; conditions: mouse, iv, male ICR mice, 1.8 mg/kg single i.v. tail vein, plasma, UPLC-ESI-QqQ-MS, n = 5; for Cmax: mean; for half-life: read-out: half-life (t1/2) (converted)
Experimental: The peptides (1.8 mg/kg) were individually dosed in mice intravenously via tail vein injection and the blood samples were collected from the orbital venous plexus at 0, 0.5, 1, 2, 4, 6, 10, 24, and 48 h. All blood samples were centrifuged at 3000 rpm for 10 min, and the obtained plasma samples were immediately frozen at -80 °C until use. The standard curve was established as follows: Stock solutions of PMI-HIF1-1 and SPMI-HIF2-1 dissolved in acetonitrile were spiked into control plasma at final concentrations of 4000, 2000, 1000, 500, 250, 125, 62.5, 31.25, 15.625, 7.8125, 3.90625, 1.953125, and 0.9765625 ng/ml. […] Plasma samples (30 μL) were treated with 90 μL acetonitrile for protein precipitation. Then all samples were vortexed for 2 min and centrifuged for 15 min at 13000 rpm and 4°C. The supernatants were analyzed by ultraperformance liquid chromatography-electrospray ionization-tandem triple quadrupole mass spectrometry (UPLC-ESI-QqQ-MS, Shimadzu 8040). The system was equipped with an XBridge BEH C18 column (2.5 μm, 2.1×100 mm; Waters, Milford, MA, USA). The column temperature was set at 35°C. The injection volume was 4 μl. […] The plasma concentration at each time point was calculated from the extracted peak area of the same mass peaks of each peptide using the corresponding standard curve.

[5] = test system: α-Chymotrypsin; assay: Proteolytic stability against chymotrypsin; assay type: in vitro ADME; conditions: chymotrypsin 5 ng/μl (10 μl) added to 1 ml of 1 mM peptide, PBS 50 mM pH 7.4, 2 mM CaCl2, 25°C, HPLC, within 10 min, read-out: peptide digested within 10 min
Experimental: Peptides were dissolved in PBS (50 mM, pH = 7.4) to a final concentration of 1 mM. α-Chymotrypsin was dissolved in PBS (50 mM, containing 2 mM of CaCl2, pH = 7.4) to a final concentration of 5 ng/μl. Then the peptide solutions (1 ml) were incubated with […] (10 μl) at 25°C. Samples were taken at 0, 5, 30, 60, 90, and 120 min and reactions were quenched with 20 μL of hydrochloric acid (1 M). The solution of the trypsin peptide fragments was monitored by HPLC at different time points to determine the fraction of protease degradation.

[6] = circular dichroism; conditions: phosphate buffer (PB); pH 7.2; 20 °C; 10-50 uM
[7] = biological target: T1, ^25-109MDM2 (Homo sapiens, UniProt Q00987); assay: FP-based competitive binding assay; conditions: MDM2 40 nM, fluorescently tagged p53 peptide 20 nM, PBS pH 7.4, 30 min room temperature; mean of three independent measurements
T1 construct: established using ^25-109MDM2, ^24-108MDMX
Experimental: (§2) An FP-based competitive or binding assay was established using ^25-109MDM2, ^24-108MDMX, and a fluorescently tagged p53-derived peptide as previously described. [34]-[36] For dose-dependent competitive binding experiments, MDM2 or MDMX protein (40 nM) was first incubated with TAMRA-p53 peptide (20 nM) in PBS (pH 7.4) on a Costar 96-well plate, to which a serially diluted solution of test peptide was added to a final volume of 125 μL. After 30 min of incubation at room temperature, the FP values were measured at λex = 530 nm and λem = 580 nm on a Tecan Infinite M1000 plate reader. For binding experiments, FITC-labeled SPMI-HIF2-1 (20 nM) was incubated with different concentrations of MDM2, MDMX, and VHL proteins. Curve fitting was performed using GraphPad Prism software, and Ki values were calculated as described previously. Three replicates and three independent experiments were performed.

[8] = biological target: T2, ^24-108MDMX (Homo sapiens, UniProt O15151); assay: FP-based competitive binding assay; conditions: MDMX 40 nM, fluorescently tagged p53 peptide 20 nM, PBS pH 7.4, 30 min room temperature; mean of three independent measurements
T2 construct: ^24-108MDMX, and a fluorescently tagged p53-derived peptide
T2 sequence (O15151 24-108): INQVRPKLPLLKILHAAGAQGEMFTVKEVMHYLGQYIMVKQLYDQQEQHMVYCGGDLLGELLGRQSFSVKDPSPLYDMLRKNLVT
Experimental: as §2

Row | SMILES | IC50 [1] | IC50 [2] | α-helicity (%) [3] | Cmax [4] | AUC(0-inf) [4] | MRT [4] | half-life [4] | metabolised at 10 min, 1 mM [5] | helicity [6] | pKi [7] | pKi [8]
1 | CC(=O)N[C@H](C(=O)N[C@@H](CO)C(=O)N[C@@H](Cc1ccccc1)C(=O)N[C@@H](C)C(=O)N[C@@H](CCC(=O)O)C(=O)N[C@@H](Cc1ccc(O)cc1)C(=O)N[C@@H](Cc1c[nH]c2ccccc12)C(=O)N[C@@H](C)C(=O)N[C@@H](CC(C)C)C(=O)N[C@@H](CC(C)C)C(=O)N[C@@H](CO)C(=O)NCCOCC(=O)N[C@@H](CC(C)C)C(=O)N[C@@H](C)C(=O)N1C[C@H](O)C[C@H]1C(=O)N[C@@H](Cc1ccc(O)cc1)C(=O)N[C@@H](CCC(C)C)C(=O)N1CCC[C@H]1C(N)=O)[C@@H](C)O [PMI-HIF1-1] | > 100 µM | > 100 µM | 17% | 14700 ng/mL | 8600 ng·h/mL | 0.7 h | 1.3 h | > 80% | 17% | 6.35 | 6.54 and 6.21
2 | CC(=O)N[C@H](C(=O)N[C@@H](CO)C(=O)N[C@@H](Cc1ccccc1)C(=O)N[C@]1(C)CCCCCCC=CCCC[C@@](C)(C(N)=O)NC(=O)[C@H](CC(C)C)NC(=O)[C@H](CC(C)C)NC(=O)[C@H](C)NC(=O)[C@H](Cc2c[nH]c3ccccc23)NC(=O)[C@H](Cc2ccc(O)cc2)NC(=O)[C@H](CCC(=O)O)NC1=O)[C@@H](C)O [SPMI2] | > 100 µM | 28.4 µM | 5% | 30000 ng/mL | 78600 ng·h/mL | 10.9 h | 7.9 h |  |  |  | 6.21 and 6.54
